Reference: PubChem BioAssay (NCI)
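96-well plates; 48 h exposure; 5 concentrations. Endpoints by linear interpolation between flanking doses. Not reached: highest tested concentration assigned. The concentration for full growth arrest is given as TGI.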

How the values were obtained:
Experiment in all cases: NCI tumour cell line growth inhibition, 48 h
[1] = test system: SF-295 CNS
[2] = test system: KM12 colon
[3] = test system: UO-31 renal
[4] = test system: K-562 leukemia
[5] = test system: DU-145 prostate
[6] = test system: TK-10 renal
[7] = test system: HOP-92 NSCLC
[8] = test system: NCI-H460 lung
[9] = test system: HS 578T breast
[10] = test system: HCT-116 colon
[11] = test system: SK-OV-3 ovarian
[12] = test system: BT-549 breast

| Compound | TGI [1] | TGI [2] | TGI [3] | TGI [4] | TGI [5] | TGI [6] | TGI [7] | TGI [8] | TGI [9] | TGI [10] | TGI [11] | TGI [12] |
| --- | --- | --- | --- | --- | --- | --- | --- | --- | --- | --- | --- | --- |
| Cc1cc(=O)oc2c(CNC(Cc3ccccc3)C(=O)O)c(O)ccc12 (stereo not drawn) | > 100 µM | > 100 µM | > 100 µM | > 100 µM | > 100 µM | > 100 µM | > 100 µM | > 100 µM | > 100 µM | > 100 µM | > 100 µM |  |
| N#C/C(N)=C(\C#N)NC(=O)C(=O)N/C(C#N)=C(\N)C#N | > 100 µM | > 100 µM | > 100 µM | > 100 µM | > 100 µM | > 100 µM | > 100 µM | > 100 µM | > 100 µM | > 100 µM |  | > 100 µM |
| O=C(Nc1nc(C23CC4CC(CC(C4)C2)C3)cs1)c1cc2ccccc2oc1=O | > 100 µM | > 100 µM | > 100 µM | > 100 µM | > 100 µM | > 100 µM | > 100 µM | > 100 µM | > 100 µM | > 100 µM |  | > 100 µM |
| COCN1C(=O)[C@@H]2CCCN2C(=O)c2cc(N)ccc21 | > 100 µM | > 100 µM | > 100 µM |  | > 100 µM | > 100 µM |  |  | > 100 µM | > 100 µM | > 100 µM | > 100 µM |
| CC(=O)O[C@H]1C(=O)[C@@]2(C)C(C(OC(=O)c3ccccc3)C3[C@@H](O)C(OC(=O)[C@@H](O)[C@H](NC(=O)c4ccccc4)c4ccc(C(F)(F)F)cc4)C(C)=C1C3(C)C)[C@]1(OC(C)=O)CO[C@@H]1C[C@@H]2O (stereo partly drawn) | > 25 µM |  | > 25 µM | > 25 µM |  | > 25 µM |  | > 25 µM |  | > 25 µM | > 25 µM |  |
| COc1ccc(/C=C2\CCC(C)C3=C2N=c2s/c(=C/c4cccc(Br)c4)c(=O)n2C3c2ccc(OC)c(OC)c2)cc1OC (stereo not drawn) |  | > 100 µM |  | > 100 µM | > 100 µM | > 100 µM | > 100 µM |  | > 100 µM | > 100 µM | > 100 µM |  |
| Cc1ccnc(NC(NC(=O)c2ccccc2)(C(F)(F)F)C(F)(F)F)c1 | > 100 µM | > 100 µM | > 100 µM | > 100 µM | > 100 µM | > 100 µM | > 100 µM |  | > 100 µM | > 100 µM | > 100 µM | > 100 µM |
| COc1cc(/C=c2\sc3n(c2=O)C(c2ccc(Cl)cc2)C2=C(CCCC2C)N=3)cc(OC)c1OC (stereo not drawn) |  | > 100 µM | > 100 µM | > 100 µM | > 100 µM | > 100 µM | > 100 µM |  | > 100 µM | > 100 µM | > 100 µM |  |
| Cc1cc2c([nH]c3ccccc32)c2c1OC(C)(C)C1C3CC(C)(C)Oc4c(C)cc5c6ccccc6n(c5c43)C21 (stereo not drawn) | > 100 µM | > 100 µM | > 100 µM | > 100 µM |  | > 100 µM | > 100 µM | > 100 µM |  | > 100 µM | > 100 µM |  |
| N#Cc1ccc(-n2c3ccccc3c3ccc4c(c32)C(=O)C=CC4=O)cc1 | 28.2 µM | 26.5 µM | 3.02 µM | > 100 µM | > 24.7 µM | 8.83 µM |  | 44.2 µM | 39.3 µM | 7.19 µM | 27.3 µM | 25.3 µM |
| Cc1cc(S(=O)(=O)Nc2nc3ccccc3c(=O)n2N)c(S)cc1Cl | > 100 µM | > 100 µM |  | > 100 µM | > 100 µM | > 100 µM |  | > 100 µM |  | > 100 µM | > 100 µM | > 100 µM |
| CN(C)c1nc(Cl)c2c(-c3ccccc3)c(-c3ccccc3)oc2n1 | > 100 µM | > 100 µM | > 100 µM | > 100 µM | > 100 µM | > 100 µM | > 100 µM |  | > 100 µM | > 100 µM | > 100 µM | 97.7 µM |
| O=C(NCCCCCCNC(=O)c1cc(-c2ccccc2)nc2ccccc12)c1cc(-c2ccccc2)nc2ccccc12 | > 100 µM |  | > 100 µM | > 100 µM | > 100 µM | > 100 µM | > 100 µM | > 100 µM | > 100 µM | > 100 µM | > 100 µM | > 100 µM |
| CCN(CC)C(=O)C(C)n1cc(C)c(=O)[nH]c1=O (stereo not drawn) | > 100 µM | > 100 µM | > 100 µM | > 100 µM |  | > 100 µM |  | > 100 µM |  | > 100 µM |  |  |
| COI1NC(=O)c2ccccc21 | > 100 µM | > 100 µM | > 100 µM | > 100 µM | > 100 µM | > 100 µM | > 100 µM |  | > 100 µM | > 100 µM | > 100 µM |  |
| CCOC(=O)c1ccc(NCC#CCN2CCCCC2)cc1 |  | > 100 µM | > 100 µM | > 100 µM | > 100 µM |  | > 100 µM |  | > 100 µM | > 100 µM | > 100 µM | > 100 µM |
| COc1cc(CNNC(N)=S)cc(OC)c1OC | > 100 µM | > 100 µM | > 100 µM | > 100 µM | > 100 µM | > 100 µM | > 100 µM | > 100 µM | > 100 µM | > 100 µM |  | > 100 µM |
| C[C@@H]1CC[C@@H]2[C@@H](C1)O[C@@H]([C@H](C)OCc1ccccc1)SC2(C)C | 34.5 µM | 36.1 µM | 29.6 µM | 39.5 µM | > 100 µM | > 100 µM |  | 53.5 µM |  | 29.3 µM | > 100 µM | > 100 µM |
| O=C(NNC(=S)NC1CCCCC1)c1csc(NC(=S)NC2CCCCC2)n1 | 19.7 µM | 87.6 µM | 11.2 µM |  | > 100 µM | > 100 µM |  |  |  | 16.5 µM | 28.6 µM | 21.1 µM |
